Where two headings read alike, the source gives them in different places.
Assay: Study .3: single dose, cross-over, food effect study in healthy volunteers, pharmacokinetic parameters
Assay type: in vivo, human
Conditions: 50 mg single dose
Method: 5. Pharmacokinetic Parameters
The pharmacokinetic parameters of pharmaceutical compositions and pharmaceutical dosage forms are assessed in healthy volunteer and patient populations. In the studies shown below, the participants fasted on the day of sampling, unless as otherwise stated (see for example study .3). The active substance in the studies below is the compound (I.9), preferably in the crystalline form (I.9X), and the dose of active ingredient is indicated in mg.
For the quantification of plasma concentrations of the active ingredient, 2.7 mL of blood was collected and transferred into an EDTA (ethylendiaminetetraacetic acid)-anticoagulant blood drawing tube. The EDTA-anticoagulated blood samples were centrifuged immediately after collection. Centrifugation lasted for about 10 minutes (at about 2,000×gf to 4,000×gf) at 4-8° C. or within 30 minutes while stored on ice. Concentrations of active substance in EDTA human plasma samples were quantitated using a HPLC/MS/MS method. The assay method comprised a solid phase supported liquid-liquid extraction of human plasma coupled with HPLC/MS/MS determination of the extracted samples. The HPLC/MS/MS assay was validated for the range of 1.11 to 1110 nM in human plasma.
Study .3: Single dose, cross-over, food effect study in a healthy volunteer population of N=14. Healthy volunteers were administered tablets as described in Example 10 (section Examples of formulations).
AUC0-inf:area under the concentration-time curve of the analyte in plasma over the time interval from 0 extrapolated to infinity.
Cmax: maximum concentration of the analyte in plasma.
Tmax: time from dosing to maximum concentration.

AUC0-inf Max (Study .3/fasted): 14.1 µM·h
AUC0-inf Min (Study .3/fasted): 6.45 µM·h
AUC0-inf,norm Max (Study .3/fasted): 282 nmol·h/L/mg
AUC0-inf,norm Median (Study .3/fasted): 159 nmol·h/L/mg
AUC0-inf,norm Min (Study .3/fasted): 129 nmol·h/L/mg
AUC0-inf,norm gMean (Study .3/fasted): 166 nmol·h/L/mg
Cmax,norm Max (Study .3/fasted): 40 nmol/L/mg
Cmax,norm Median (Study .3/fasted): 20 nmol/L/mg
Cmax,norm Min (Study .3/fasted): 18 nmol/L/mg
Cmax,norm gMean (Study .3/fasted): 23 nmol/L/mg
tmax Max (Study .3/fasted): 4.07 h
tmax Min (Study .3/fasted): 0.750 h
Cmax (Study .3/fasted, read-out: Cmax Max): 2020 nM
Cmax (Study .3/fasted, read-out: Cmax Min): 878 nM
AUC0-inf Max (Study .3/fed): 10.8 µM·h
AUC0-inf Min (Study .3/fed): 5.06 µM·h
AUC0-inf,norm Max (Study .3/fed): 216 nmol·h/L/mg
AUC0-inf,norm Median (Study .3/fed): 150 nmol·h/L/mg
AUC0-inf,norm Min (Study .3/fed): 101 nmol·h/L/mg
AUC0-inf,norm gMean (Study .3/fed): 149 nmol·h/L/mg
Cmax,norm Max (Study .3/fed): 21 nmol/L/mg
Cmax,norm Median (Study .3/fed): 17 nmol/L/mg
Cmax,norm Min (Study .3/fed): 9 nmol/L/mg
Cmax,norm gMean (Study .3/fed): 16 nmol/L/mg
tmax Max (Study .3/fed): 4.00 h
tmax Min (Study .3/fed): 1.00 h
Cmax (Study .3/fed, read-out: Cmax Max): 1070 nM
Cmax (Study .3/fed, read-out: Cmax Min): 436 nM
AUC(0-inf) (human, plasma, oral, 50 mg, Study .3/fasted, read-out: AUC0-inf Mean): 8.51 µM·h
AUC(0-inf) (human, plasma, oral, 50 mg, Study .3/fasted, read-out: AUC0-inf Median): 7.93 µM·h
AUC(0-inf) (human, plasma, oral, 50 mg, Study .3/fasted, read-out: AUC0-inf gMean): 8.31 µM·h
Cmax (human, plasma, oral, 50 mg, Study .3/fasted, read-out: Cmax Mean): 1180 nM
Cmax (human, plasma, oral, 50 mg, Study .3/fasted, read-out: Cmax Median): 1010 nM
Cmax (human, plasma, oral, 50 mg, Study .3/fasted, read-out: Cmax gMean): 1140 nM
Tmax (human, plasma, oral, 50 mg, Study .3/fasted, read-out: tmax Mean): 1.53 h
Tmax (human, plasma, oral, 50 mg, Study .3/fasted, read-out: tmax Median): 1.02 h
Tmax (human, plasma, oral, 50 mg, Study .3/fasted, read-out: tmax gMean): 1.29 h
AUC(0-inf) (human, plasma, oral, 50 mg, Study .3/fed, read-out: AUC0-inf Mean): 7.59 µM·h
AUC(0-inf) (human, plasma, oral, 50 mg, Study .3/fed, read-out: AUC0-inf Median): 7.49 µM·h
AUC(0-inf) (human, plasma, oral, 50 mg, Study .3/fed, read-out: AUC0-inf gMean): 7.46 µM·h
Cmax (human, plasma, oral, 50 mg, Study .3/fed, read-out: Cmax Mean): 824 nM
Cmax (human, plasma, oral, 50 mg, Study .3/fed, read-out: Cmax Median): 830 nM
Cmax (human, plasma, oral, 50 mg, Study .3/fed, read-out: Cmax gMean): 806 nM
Tmax (human, plasma, oral, 50 mg, Study .3/fed, read-out: tmax Mean): 2.46 h
Tmax (human, plasma, oral, 50 mg, Study .3/fed, read-out: tmax Median): 2.48 h
Tmax (human, plasma, oral, 50 mg, Study .3/fed, read-out: tmax gMean): 2.18 h
Compound: OC[C@H]1O[C@@H](c2ccc(Cl)c(Cc3ccc(O[C@H]4CCOC4)cc3)c2)[C@H](O)[C@@H](O)[C@@H]1O [Compound (I.9), 1-chloro-4-(β-D-glucopyranos-1-yl)-2-[4-((S)-tetrahydrofuran-3-yloxy)-benzyl]-benzene]

From patent US20180289678A1, “PHARMACEUTICAL COMPOSITION, PHARMACEUTICAL DOSAGE FORM, PROCESS FOR THEIR PREPARATION, METHODS FOR TREATING AND USES THEREOF” (Boehringer Ingelheim International GmbH, priority 2009, published 2018)
